“Also recorded” adds a separate entry of the source.
Tests used:
Male Sprague-Dawley rats = assay: Rat elevated zero-maze model of anxiety; assay type: in vivo
Excerpt: The rat zero-maze model is a refined alternative to the plus-maze, the most widely used animal model of anxiety, and consists of an elevated annular platform, divided equally into four quadrants. Two opposite quadrants are enclosed by Perspex walls on both the inner and the outer edges of the platform, while the remaining two opposite quadrants are open being enclosed only by a Perspex “lip”. Animals will show a preference for the closed areas, and avoidance of the open sections is assumed to stem from a rodent's natural aversion to open, exposed spaces. A reduction in the amount of activity on the open areas is considered to reflect an increase in anxiety (shepherd 1994). The ethologically-based behavior rearing was also assessed as an index of anxiety with a decrease in rearing indicative of an […] effect [(a) File 1985, Boissier 1976; (b) File, S. E. (1985). What can be learned from the effects of benzodiazepines on exploratory behavior? Neuroscience & Biobehavioral Reviews, 9(1), 45-54. doi:10.1016/0149-7634(85)90031-4; (c) Boissier, J. R., P. Simon and P. Soubrie. New approaches to the study of anxiety and anxiolytic drugs in animals. […]
Subjects were weighed and tail marked before being injected. After a specified pre-treatment time, subjects were placed in a closed quadrant and a 5-min test period were recorded on videotape for subsequent analysis. […] Animals are scored as being in the open area when all four paws were in an open quadrant and in the closed area only when all four paws have passed over the open-closed divide. […]
30 male Sprague-Dawley rats in treatment groups of 5, was intraperitoneally dosed with either Vehicle 1 (saline) or 2C-B at 1 of 4 dose levels (0.1, 1, 2 & 5 mg/kg) or chlordiazepoxide (6 mg/kg) in 5 mL/kg injection volumes. Thirty min later at T=0, rats were individually placed in a closed arm of the zero-maze and behavior was assessed by a “blind” observer using remote video monitoring over the subsequent 5 min. […]
Data was analysed with Statistica software (Statsoft USA version 10.0). […]

TNF-α = assay: LPS-induced TNF-α release ex vivo in whole blood of dosed rats; set-up: species or system rat; conditions: for TNF alpha levels, LPS low dose: LPS 1 μg/mL
Excerpt: The bacterial endotoxin lipopolysaccharide (LPS) induces a strong inflammatory response from normal animal immune systems. This response is triggered when LPS is recognized by the innate immune system via the Toll Like Receptor (TLR4) particularly those located on monocytes and macrophages although they are also located on a wide variety of other cell types. Stimulation of the TLR4 receptor leads to recruitment and activation of IL-1R associated kinase 1 (IRAK-1) initiating a series of signalling events in immunoregulatory pathways such as activation of NF kappa B, p38 MAP Kinase, ERK and JNK and AP-1. These changes promote gene transcription and thereby potentiate secretion of pro inflammatory factors such as TNF alpha and other cytokines (Fang et al., 2004).
Determination of the effects of novel agents against LPS-induced TNF alpha release ex vivo provides an assessment of whether the plasma level of compound achieved after administration to whole animal is capable of affecting the inflammatory response.
Dexamethasone disodium phosphate salt was formulated in water to a concentration of 0.6 mg free base/mL to give a dose of 3 mg free base/kg when orally administered in a 5 mL/kg dosing volume. 2C-B hydrochloride was formulated in Vehicle 1 (saline) at concentrations of […]. This provided doses of 0.1 and 1 mg/kg respectively when injected ip in 5 mL/kg dosing volumes. Ex vivo formulation
LPS were dissolved in saline to concentrations of 0.2 and 0.6 mg/mL. This will then be diluted 10 fold in saline to give concentrations of 0.02 and 0.06 mg/mL that will provide concentrations of 1 and 3 μg/mL when 15 uL is added to 285 of whole blood (20 fold dilution).
Twenty four male SD rats (approximately 200 g), were group housed. Animals were maintained under a 12 h light/dark cycle, where temperature and humidity are controlled. Animals were allowed free access to food and water.
Rats were allocated to treatment groups of 6 and habituated to the test room on the day prior to the study. On the test day, rats were dosed orally with either water or dexamethasone 3 mg/kg in 5 mL/kg dosing volumes. Thirty minutes later the animals were dosed intraperitoneally with either saline or 2C-B in 5 mL/kg dosing volumes. After a further 90 minutes terminal blood samples were collected by cardiac puncture under CO2. • Three aliquots, each of 285 μL from each animal's blood sample were pipetted into separate Eppendorf tubes. • Tubes were left for 10 min • Assay tubes will then be mixed gently before adding 15 μL of saline or LPS to give final concentrations of 1 and 3 μg/ml. • After a further gentle mixing, assay tubes were placed in an incubator at 37° C. for 24 h. • At the end of this time, the whole blood aliquots were spun down to plasma. The plasma were then removed and placed in duplicate 96 well plates on dry ice. Plates were stored at −20° C. until analyzed for TNF-α after 10-fold dilution.
The TNF-alpha content of the collected rat plasmas samples were measured using a Rat TNF-alpha Quantikine ELISA Kit (cat no RTA00).
A 1-way ANOVA was conducted across the vehicle and 3 treatment groups (0.1 mg/kg 2C-B IP, 1 mg/kg 2C-B IP, and 3 mg/kg dexamethasone PO) independently for 3 stimulation conditions (no stimulation [saline], 1 μg/mL LPS, and 3 μg/mL LPS). […] Each group was compared to the vehicle group and a p-value for treatment determined by Fishers Least Significant Difference (LSD) test, without statistical penalty for multiple comparisons. […]

[1] = Dynamic vapor sorption/desorption (DVS), hygroscopicity; assay type: physicochemical
Description: The active pharmaceutical ingredient (API), 4-bromo-2,5-dimethoxyphenethylamine hydrochloride, is characterized to evaluate its physical properties. The evaluation is performed by X-ray powder diffraction (XRPD), polarized light microscopy (PLM), differential scanning calorimetry (DSC), thermogravimetry (TG), dynamic vapor sorption/desorption (DVS), and/or solubility testing in organic solvents, water, and mixed solvent systems. XRPD data are used to assess crystallinity. PLM data are used to evaluate crystallinity and particle size/morphology. DSC data are used to evaluate melting point, thermal stability, and crystalline form conversion. TG data are used to evaluate if the API is a solvate or hydrate, and to evaluate thermal stability. DVS data are used to evaluate hygroscopicity of the API and if hydrates can be formed at high relative humidity.
The form characterized in FIGS. 1 and 2 is designated as Form A herein. […] A sharp endotherm at 238° C. in the DSC thermogram is attributed to melting.

[2] = Water activity slurry experiments, 2C-B HCl Form A vs Form C; assay type: physicochemical; conditions: slurry of Form A at ambient temperature
[3] = Dynamic vapor sorption (DVS) with XRPD of the post-DVS sample; assay type: physicochemical
Description: Dynamic Vapor Sorption (DVS) analysis was carried out using a TA Instruments Q5000 Dynamic Vapor Sorption analyzer. The instrument was calibrated with standard weights and a sodium bromide standard for humidity. Approximately 10-25 mg of sample was loaded into a metal-coated quartz pan for analysis. The sample was analyzed at 25° C. with a maximum equilibration time of one hour in 10% relative humidity (RH) steps from 5 to 95% RH (adsorption cycle) and from 95 to 5% RH (desorption cycle). The movement from one step to the next occurred either after satisfying the equilibrium criterion of 0.01% weight change or, if the equilibrium criterion was not met, after one hour. The percent weight change values were calculated using Microsoft Excel.
(§1) The DVS analysis was carried out using a TA Instruments Q5000 Dynamic Vapor Sorption analyzer. 13.5 mg of sample was loaded into a metal-coated quartz pan for analysis. After equilibration to 5% relative humidity (RH), the sample was analyzed at 25° C. in 10% RH steps from 5 to 95% RH (adsorption cycle) and from 95 to 5% RH (desorption cycle). The movement from one step to the next occurred either after satisfying the equilibrium criterion of 0.01% weight change in 5 minutes or, if the equilibrium criterion was not met, after 90 minutes. The percent weight change values are calculated using Microsoft Excel®.
as §1, with “DVS analyses were” for “DVS analysis was”, “analyzer. Approximately 7-11” for “analyzer. 13.5”, “equilibration at” for “equilibration to”, “values were” for “values are”
as §1, with “analyzer. Approximately 2” for “analyzer. 13.5”, “equilibration at” for “equilibration to”, “values were” for “values are”

## COc1cc(CCN)c(OC)cc1Br [2C-B, 4-bromo-2,5-dimethoxyphenethylamine]
Male Sprague-Dawley rats; ip 1 mg/kg, 2 mg/kg, and 5 mg/kg doses
  frequency of rearing: decreased the frequency of rearing as effectively as the benzodiazepine chlordiazepoxide
Male Sprague-Dawley rats; ip 5 mg/kg
  frequency of rearing: greatest numerical effect
Male Sprague-Dawley rats; ip 0.1, 1, 2 & 5 mg/kg, 30 min before 5-min test
  frequency of rearing: significantly reduced the number of rears in a dose dependent manner; also recorded: as effective as the chlordiazepoxide control
TNF-α; 0.1 mg/kg ip
  TNF alpha levels, LPS low dose: no difference vs placebo
TNF-α; 1 mg/kg ip
  TNF alpha levels, LPS low dose: trended towards significance
TNF-α; 1 mg/kg ip, LPS 3 μg/ml, 1-way ANOVA
  TNF alpha levels, high level of LPS: significant decrease in TNF alpha levels
TNF-α; no stimulation (saline), 2C-B 0.1 and 1 mg/kg ip, dexamethasone 3 mg/kg po
  TNF alpha levels in the absence of LPS: no effect
TNF-α; pre-treatment in vivo ip, LPS 1 and 3 μg/mL
  amount of TNF alpha released in response to LPS: reduced the amount of TNF alpha released in response to LPS

## COc1cc(CCN)c(OC)cc1Br.Cl [Form A, 4-bromo-2,5-dimethoxyphenethylamine hydrochloride]
[1]
  hygroscopicity based on DVS data: slightly hygroscopic
[1]; loses all the gained moisture
  Form change after moisture sorption/desorption (DVS): without form change
[2]; hydrochloride
  water activities at which the form was obtained or remained unchanged: ≤ 0.5
[3]; 25° C., 5 to 95% RH
  hygroscopicity based on DVS data: slightly hygroscopic
[3]; desorption 95 to 5% RH
  behaviour on desorption / form change by XRPD of post-DVS sample: loses all the gained moisture without form change

## COc1cc(CCN)c(OC)cc1Br.Cl [Form C, 4-bromo-2,5-dimethoxyphenethylamine HCl]
[2]; HCl
  water activities at which the form was obtained or remained unchanged: ≥ 0.6
